Assay results published in US6972296B2, “Carboxylic acid derivatives that inhibit the binding of integrins to their receptors” (Encysive Pharmaceuticals Inc., priority 1999, dated 2005).

Target: T1, α4β1 integrin (Homo sapiens, UniProt P05556+P13612)
T1 construct: endogenous in cells; host or cells: Ramos cells
Assay: Adhesion of calcein-labeled Ramos cells to CS1 (fibronectin) peptide conjugated ovalbumin
Format: cell-based
Settings: Table 2; Ramos cell adhesion to CS1 conjugated ovalbumin, 30 minutes at 37° C.
Outline: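 Plates bearing CS1 fibronectin peptide coupled to ovalbumin (0.5 μg/ml coat, 3% BSA block) received calcein-labelled Ramos cells plus compound (100 μM stated) for 30 min at 37 °C. Buffer was TBS pH 7.5 with 1 mM Mg2+, Ca2+, Mn2+; bound cells quantified by fluorescence after lysis; […].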

T1 sequence (P13612 34-1032): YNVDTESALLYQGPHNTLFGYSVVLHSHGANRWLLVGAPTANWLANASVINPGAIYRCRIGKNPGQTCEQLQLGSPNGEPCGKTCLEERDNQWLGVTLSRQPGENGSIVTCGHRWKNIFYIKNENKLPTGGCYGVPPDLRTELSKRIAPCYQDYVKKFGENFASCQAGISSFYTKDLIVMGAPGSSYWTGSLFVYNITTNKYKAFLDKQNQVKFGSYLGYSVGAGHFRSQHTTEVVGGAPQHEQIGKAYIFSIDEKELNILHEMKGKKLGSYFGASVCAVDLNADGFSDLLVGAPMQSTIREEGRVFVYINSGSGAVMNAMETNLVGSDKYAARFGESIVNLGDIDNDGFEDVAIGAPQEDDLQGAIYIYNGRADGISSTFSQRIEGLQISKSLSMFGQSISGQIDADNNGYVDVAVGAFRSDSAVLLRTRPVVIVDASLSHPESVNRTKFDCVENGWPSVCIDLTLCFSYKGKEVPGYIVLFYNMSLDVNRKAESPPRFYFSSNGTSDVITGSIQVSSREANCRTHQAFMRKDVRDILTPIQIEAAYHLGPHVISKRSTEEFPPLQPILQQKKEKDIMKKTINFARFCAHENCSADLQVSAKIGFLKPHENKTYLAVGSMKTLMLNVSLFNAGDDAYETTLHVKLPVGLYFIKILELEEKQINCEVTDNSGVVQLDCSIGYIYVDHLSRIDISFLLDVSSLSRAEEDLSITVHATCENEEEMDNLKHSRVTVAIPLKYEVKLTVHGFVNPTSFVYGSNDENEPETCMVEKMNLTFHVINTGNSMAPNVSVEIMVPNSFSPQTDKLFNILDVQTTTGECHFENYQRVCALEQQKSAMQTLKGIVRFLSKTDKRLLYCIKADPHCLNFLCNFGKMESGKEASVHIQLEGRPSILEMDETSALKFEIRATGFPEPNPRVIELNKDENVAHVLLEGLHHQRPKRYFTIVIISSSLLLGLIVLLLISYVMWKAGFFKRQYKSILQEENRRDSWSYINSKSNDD
T1 sequence (P05556 21-798): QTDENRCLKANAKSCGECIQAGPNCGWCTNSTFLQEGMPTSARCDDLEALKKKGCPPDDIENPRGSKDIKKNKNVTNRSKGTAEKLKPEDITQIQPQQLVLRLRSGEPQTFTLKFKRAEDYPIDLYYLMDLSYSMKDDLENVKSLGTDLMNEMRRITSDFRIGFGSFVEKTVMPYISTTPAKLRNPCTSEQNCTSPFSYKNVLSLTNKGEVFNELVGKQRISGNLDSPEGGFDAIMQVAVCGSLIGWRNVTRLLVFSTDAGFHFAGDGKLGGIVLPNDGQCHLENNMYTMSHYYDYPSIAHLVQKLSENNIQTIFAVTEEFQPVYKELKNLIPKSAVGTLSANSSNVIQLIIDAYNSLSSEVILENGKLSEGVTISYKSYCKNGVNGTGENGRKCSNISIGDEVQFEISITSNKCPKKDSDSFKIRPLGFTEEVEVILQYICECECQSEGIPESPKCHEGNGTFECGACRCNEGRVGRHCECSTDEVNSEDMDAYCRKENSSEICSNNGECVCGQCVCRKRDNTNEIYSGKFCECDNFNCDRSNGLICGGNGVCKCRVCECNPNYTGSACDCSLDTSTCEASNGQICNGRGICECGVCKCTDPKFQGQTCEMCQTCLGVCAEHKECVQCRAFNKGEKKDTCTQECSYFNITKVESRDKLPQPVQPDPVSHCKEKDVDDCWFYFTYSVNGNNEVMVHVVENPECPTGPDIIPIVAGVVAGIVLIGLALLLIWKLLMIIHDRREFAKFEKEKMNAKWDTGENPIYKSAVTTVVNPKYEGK

Row | Structure (SMILES) | IC50 [nM]
1 | O=C(O)C[C@H](NC(=O)Nc1cccn(Cc2cccs2)c1=O)c1ccc2c(c1)OCO2 [(3S)-3-(1,3-benzodioxol-5-yl)-3-[({[2-oxo-1-(2-thienylmethyl)-1,2-dihydro-3-pyridinyl]amino}carbonyl)amino]propanoic acid] | 900

Same assay, conditions: Table 3; Ramos cell adhesion to CS1 conjugated ovalbumin, 30 minutes at 37° C.

Row | Structure (SMILES) | IC50 [nM]
2 | CCCc1ccn(Cc2ccccc2Cl)c(=O)c1NC(=O)N[C@@H](CC(=O)O)c1ccc(C)cc1 | 4
3 | O=C(O)CC(NC(=O)Nc1c(O)ccn(Cc2ccccc2Cl)c1=O)c1ccc(Cl)cc1 (centres unmarked) | 30
4 | Cc1ccc([C@H](CC(=O)O)NC(=O)Nc2c(C)ccn(Cc3ccc(Cl)cc3Cl)c2=O)cc1 | 30

Same assay, conditions: Table 4; Ramos cell adhesion to CS1 conjugated ovalbumin, 30 minutes at 37° C.

Row | Structure (SMILES) | IC50 [nM]
5 | Cc1ccc([C@H](CC(=O)O)NC(=O)Nc2cccn(Cc3csc(C)n3)c2=O)cc1 | 1000
6 | Cc1ccc([C@H](CC(=O)O)NC(=O)Nc2cccn(Cc3ccc([N+](=O)[O-])cc3)c2=O)cc1 | 1000
7 | CC(=O)Nc1ccc(Br)c(Cn2cccc(NC(=O)N[C@@H](CC(=O)O)c3ccc(C)cc3)c2=O)c1 | 200
8 | O=C(O)CC(NC(=O)Nc1c(O)ccn(Cc2ccccc2Cl)c1=O)c1ccc(Cl)cc1 (centres unmarked) | 30
9 | O=C(O)C[C@H](NC(=O)Nc1cccn(Cc2ccccc2Cl)c1=O)c1ccc(F)c(C(F)(F)F)c1 | 200
10 | Cc1ccc([C@H](CC(=O)O)NC(=O)Nc2cccn(Cc3cc(Cl)ccc3Cl)c2=O)cc1 | 150
11 | Cc1cc([C@H](CC(=O)O)NC(=O)Nc2cccn(Cc3ccccc3Cl)c2=O)ccc1O | 70

Same assay, conditions: Table 5; Ramos cell adhesion to CS1 conjugated ovalbumin; dose required to give 50% inhibition

Row | Structure (SMILES) | IC50 [nM]
12 | O=C(O)CC(NC(=O)Nc1c(O)ccn(Cc2ccccc2Cl)c1=O)c1cccc2ccccc12 (centres unmarked) | 200
13 | O=C(O)C[C@H](NC(=O)Nc1c(O)ccn(Cc2ccccc2Cl)c1=O)c1cc(F)cc(F)c1 | 50
14 | COc1c(Cn2cccc(NC(=O)N[C@@H](CC(=O)O)c3ccc(C)cc3)c2=O)cccc1C(C)(C)C | 2500
15 | Cc1ccc([C@H](CC(=O)O)NC(=O)Nc2c(O)ccn(Cc3cccc(Cl)c3Cl)c2=O)cc1 | 130
16 | O=C(O)CC(NC(=O)Nc1c(O)ccn(Cc2ccccc2Cl)c1=O)c1ccc2ccccc2c1 (centres unmarked) [3-[({[1-(2-chlorobenzyl)-4-hydroxy-2-oxo-1,2-dihydropyridin-3-yl]amino}carbonyl)amino]-3-(2-naphthyl)propanoic acid] | 20
17 | Cc1ccc([C@H](CC(=O)O)NC(=O)Nc2c(O)ccn(Cc3cc(C)ccc3C)c2=O)cc1 | 20
18 | Cc1ccc([C@H](CC(=O)O)NC(=O)Nc2c(Nc3ccc(C(=O)O)cc3)ccn(Cc3ccccc3Cl)c2=O)cc1 [4-{[3-[({[(1S)-2-carboxy-1-(4-methylphenyl)ethyl]amino}carbonyl)amino]-1-(2-chlorobenzyl)-2-oxo-1,2-dihydropyridin-4-yl]amino}benzoic acid] | 4
19 | CCCOc1cccc([C@H](CC(=O)O)NC(=O)Nc2c(O)ccn(Cc3ccccc3Cl)c2=O)c1 | 3

Same assay, conditions: Table 6; Ramos cell adhesion to CS1 conjugated ovalbumin, 30 minutes at 37° C.

Row | Structure (SMILES) | IC50 [nM]
20 | Cc1ccc([C@H](CC(=O)O)NC(=O)Nc2c(O)c(Cl)cn(Cc3ccccc3Cl)c2=O)cc1 [(3S)-3-[({[5-chloro-1-(2-chlorobenzyl)-4-hydroxy-2-oxo-1,2-dihydropyridin-3-yl]amino}carbonyl)amino]-3-(4-methylphenyl)propanoic acid] | 6
21 | CCOc1cc(OCC)cc([C@H](CC(=O)O)NC(=O)Nc2c(O)c(C)cn(Cc3ccccc3Cl)c2=O)c1 | 3
22 | CCOc1ccc([C@H](CC(=O)O)NC(=O)Nc2c(O)c(C)cn(Cc3c(Cl)cccc3OC)c2=O)cc1OCC [(3S)-3-[({[1-(2-chloro-6-methoxybenzyl)-4-hydroxy-5-methyl-2-oxo-1,2-dihydropyridin-3-yl]amino}carbonyl)amino]-3-(3,4-diethoxyphenyl)propanoic acid] | 2
23 | CCOc1ccc([C@H](CC(=O)O)NC(=O)Nc2c(O)c(C3CC3)cn(Cc3ccccc3Cl)c2=O)cc1OCC | 6
24 | CCCc1cn(Cc2c(Cl)cccc2OC)c(=O)c(NC(=O)N[C@@H](CC(=O)O)c2ccc(C)cc2)c1O | 15
25 | O=C(O)C[C@H](NC(=O)Nc1c(O)ccn(Cc2ccccc2Cl)c1=O)c1ccc(OC(F)F)cc1 | 30
26 | CSc1cccc(Cn2ccc(O)c(NC(=O)N[C@@H](CC(=O)O)c3ccc(C)cc3)c2=O)c1 | 20
27 | O=C(O)C[C@@H](Cc1cccc2ccccc12)NC(=O)Nc1c(O)ccn(Cc2ccccc2Cl)c1=O | 2500
28 | CCOc1cccc(Cl)c1Cn1ccc(O)c(NC(=O)N[C@@H](CC(=O)O)c2ccc(C)cc2)c1=O | 7
29 | COc1cc([C@H](CC(=O)O)NC(=O)Nc2c(O)c(C)cn(Cc3c(C)cccc3Cl)c2=O)ccc1C | 25

Same assay, conditions: Table 7; Ramos cell adhesion to CS1 conjugated ovalbumin; dose required to give 50% inhibition

Row | Structure (SMILES) | IC50 [nM]
30 | Cc1cccc(Cl)c1Cn1c2c(c(O)c(NC(=O)N[C@@H](CC(=O)O)c3ccc4c(ccn4C)c3)c1=O)CCC2 [(3S)-3-{[({1-[(2-chloro-6-methylphenyl)methyl]-4-hydroxy-2-oxo-2,5,6,7-tetrahydro-1H-cyclopenta[b]pyridin-3-yl}amino)carbonyl]amino}-3-(1-methyl-1H-indol-5-yl)propanoic acid] | 3
31 | CCOc1cc(OCC)cc([C@H](CC(=O)O)NC(=O)Nc2c(O)c3c(n(Cc4c(Cl)cccc4OCC)c2=O)CCC3)c1 [(3S)-3-[({[1-(2-chloro-6-ethoxybenzyl)-4-hydroxy-2-oxo-2,5,6,7-tetrahydro-1H-cyclopenta[b]pyridin-3-yl]amino}carbonyl)amino]-3-(3,5-diethoxyphenyl)propanoic acid] | 3
32 | CCOc1cccc(Cl)c1Cn1cc(C)c(O)c(NC(=O)N[C@@H](CC(=O)O)c2ccc3c(ccn3C)c2)c1=O [(3S)-3-[({[1-(2-chloro-6-ethoxybenzyl)-4-hydroxy-5-methyl-2-oxo-1,2-dihydropyridin-3-yl]amino}carbonyl)amino]-3-(1-methyl-1H-indol-5-yl)propanoic acid] | 3
33 | O=C(O)C[C@H](NC(=O)Nc1c(O)c2c(n(Cc3ccccc3Cl)c1=O)CCC2)c1cccc(OC(F)(F)F)c1 | 10
34 | CCOc1cccc(Cl)c1Cn1nc(C)c(O)c(NC(=O)N[C@@H](CC(=O)O)c2ccc(C)cc2)c1=O | 7
35 | CCOc1cccc(Cl)c1Cn1c(C)cc(O)c(NC(=O)N[C@@H](CC(=O)O)c2cccc(OC(C)C)c2)c1=O [(3S)-3-[({[1-(2-chloro-6-ethoxybenzyl)-4-hydroxy-6-methyl-2-oxo-1,2-dihydropyridin-3-yl]amino}carbonyl)amino]-3-(3-isopropoxyphenyl)propanoic acid] | 3
36 | CCn1c(=O)n(CC)c2cc([C@H](CC(=O)O)NC(=O)Nc3c(O)c4c(n(Cc5ccccc5Cl)c3=O)CCC4)ccc21 | 4
37 | CCOc1cccc(-c2ccc([C@H](CC(=O)O)NC(=O)Nc3c(O)ccn(Cc4ccccc4Cl)c3=O)cc2)c1 | 27
38 | Cc1cccc(Cl)c1Cn1c2c(c(O)c(NC(=O)N[C@@H](CC(=O)O)c3cccc(OC(F)(F)F)c3)c1=O)CCC2 | 11
39 | CCOc1cccc(Cl)c1Cn1cc(C)c(O)c(NC(=O)NC(CC(=O)O)c2ccc3ccccc3c2)c1=O (centres unmarked) | 13
40 | CCOc1cccc([C@H](CC(=O)O)NC(=O)Nc2c(O)c3c(n(Cc4c(Cl)cccc4OCC)c2=O)CCC3)c1 | 2
41 | Cc1cccc(Cl)c1Cn1c2c(c(O)c(NC(=O)N[C@@H](CC(=O)O)c3cccc(OC(C)C)c3)c1=O)CCC2 | 10
42 | O=C(O)C[C@H](NC(=O)Nc1c(O)c2c(n(Cc3ccccc3Cl)c1=O)CCC2)c1cc(C(F)(F)F)cc(C(F)(F)F)c1 | 130
43 | COc1ccc(-c2ccc([C@H](CC(=O)O)NC(=O)Nc3c(O)c(C)cn(Cc4ccccc4Cl)c3=O)cc2)cc1 | 23
44 | CCC(CC)Oc1cccc([C@H](CC(=O)O)NC(=O)Nc2c(O)c3c(n(Cc4ccccc4Cl)c2=O)CCC3)c1 | 20
